Test results: patent publication US9315503B2, “Kinase inhibitors” (CHIESI FARMACEUTICI S.p.A., priority 2011, dated 2016)

Legend:
p38alpha = target: T1, p38alpha (Homo sapiens, UniProt Q16539); experiment: P38Alpha enzyme inhibition assay (Alphascreen kinase activity assay); assay type: biochemical; conditions: 100 pM p38alpha, 250 μM ATP, 2 hours pre-incubation at 25° C., read-out: p38α inhibition (IC50 values)
T1 construct: purchased Invitrogen PV3304
Outline: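 p38α (100 pM) with ATF-2 fusion protein substrate (0.3 µg/ml) in pH 7.5 HEPES/MgCl2 buffer, 1% DMSO, preincubated 2 h at 25°C with compound. Reaction started with 250 µM ATP, ran 1 h at 25°C, then stopped with EDTA. Phospho-ATF2 antibody detected by AlphaScreen luminescence; IC50 from concentration-response curves.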

[1] = test system: LPS-stimulated TNFα release from PBMCs; experiment: LPS-stimulated PBMC TNFα release assay; assay type: cell-based; conditions: inhibition of TNFα release, human PBMCs, LPS 10 ng/ml, 18 h, ELISA, read-out: p38α inhibition (IC50 values)
Description: LPS-Stimulated PBMC TNFα Release Assay.
Peripheral Blood Mononuclear Cells (PBMCs) were isolated from healthy human volunteer blood using a standard density gradient centrifugation technique. Citrated blood was placed onto Histopaque™ and centrifuged. The PBMCs were removed from the density gradient interface and washed in phosphate buffered saline (PBS). The PBMCs were suspended in RPMI 1640 medium (without serum), dispensed into a 96-well plate and incubated at 37° C. for 3 h in a humidified incubator. After incubation, the medium was replaced (with medium containing 1% foetal bovine serum) and the plate incubated at 37° C., for 1 h, in the presence of test compound or the appropriate vehicle. LPS (10 ng/ml), or an appropriate vehicle control, was then added to the cells and the plate returned to the incubator for 18 h. Cell-free supernatants were removed and assayed for TNFα levels using an ELISA kit from R&D Systems.
A dose response curve to each test compound was performed and the effect of compound in each experiment was expressed as a percentage inhibition of the control TNFα release. Dose response curves were plotted and compound potency (IC50) was determined. Compounds were tested in at least three separate experiments.

T1 sequence (Q16539 whole entry): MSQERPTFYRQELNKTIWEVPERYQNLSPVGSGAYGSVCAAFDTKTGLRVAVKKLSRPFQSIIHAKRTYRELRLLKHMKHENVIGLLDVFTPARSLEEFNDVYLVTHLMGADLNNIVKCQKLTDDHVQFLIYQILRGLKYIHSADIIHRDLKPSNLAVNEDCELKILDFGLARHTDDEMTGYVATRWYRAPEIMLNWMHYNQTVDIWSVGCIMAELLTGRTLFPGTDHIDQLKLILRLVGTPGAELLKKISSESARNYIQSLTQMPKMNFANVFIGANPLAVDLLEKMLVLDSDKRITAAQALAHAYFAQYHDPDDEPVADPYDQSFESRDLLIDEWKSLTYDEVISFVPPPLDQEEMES

SMILES | IC50 (p38alpha) | IC50 [1]
COCC(=O)Nc1cc(O[C@H]2CC[C@H](NC(=O)Nc3cc(C(C)(C)C)nn3-c3ccc(C)cc3)c3ccccc32)ccn1 [Example 10, N-(4-{(1S,4S)-4-[3-(5-tert-Butyl-2-p-tolyl-2H-pyrazol-3-yl)-ureido]-1,2,3,4-tetrahydro-naphthalen-1-yloxy}-pyridin-2-yl)-2-methoxy-acetamide] | < 10 nM | < 10 nM
Cc1ccc(-n2nc(C(C)(C)C)cc2NC(=O)N[C@H]2CC[C@@H](Oc3ccc4cnn(CCO)c4c3)c3ccccc32)cc1 [Example 11, 1-(5-tert-Butyl-2-p-tolyl-2H-pyrazol-3-yl)-3-{(1S,4R)-4-[1-(2-hydroxy-ethyl)-1H-indazol-6-yloxy]-1,2,3,4-tetrahydro-naphthalen-1-yl}-urea] | < 10 nM | 10 to 100 nM
Cc1ccc(-n2nc(C(C)(C)C)cc2NC(=O)N[C@H]2CC[C@@H](Oc3ccc4nnc([C@H]5CCCN5)n4c3)c3ccccc32)cc1 [Example 12, 1-(5-tert-Butyl-2-p-tolyl-2H-pyrazol-3-yl)-3-[(1S,4R)-4-((R)-3-pyrrolidin-2-yl-[1,2,4]triazolo[4,3-a]pyridin-6-yloxy)-1,2,3,4-tetrahydro-naphthalen-1-yl]-urea] | < 10 nM | < 10 nM
COCC(=O)Nc1cc(O[C@@H]2CC[C@H](NC(=O)Nc3cc(C(C)(C)C)nn3-c3ccc(C)cc3)c3ccccc32)ccn1 [Example 13, N-(4-{(1R,4S)-4-[3-(5-tert-Butyl-2-p-tolyl-2H-pyrazol-3-yl)-ureido]-1,2,3,4-tetrahydro-naphthalen-1-yloxy}-pyridin-2-yl)-2-methoxy-acetamide] | < 10 nM | < 10 nM
Cc1ccc(-n2nc(C(C)(C)C)cc2NC(=O)N[C@H]2CC[C@@H](Oc3ccc4nnc(-c5ccc(CN6CCOCC6)cc5)n4c3)c3ccccc32)cc1 [Example 18, 1-(5-tert-Butyl-2-p-tolyl-2H-pyrazol-3-yl)-3-{(1S,4R)-4-[3-(4-morpholin-4-ylmethyl-phenyl)-[1,2,4]triazolo[4,3-a]pyridin-6-yloxy]-1,2,3,4-tetrahydro-naphthalen-1-yl]-urea] | < 10 nM | < 10 nM
Cc1ccc(-n2nc(C(C)(C)C)cc2NC(=O)N[C@H]2CC[C@@H](Oc3ccc4nnc(-c5cccc(CN6CCOCC6)c5)n4c3)c3ccccc32)cc1 [Example 19, 1-(5-tert-Butyl-2-p-tolyl-2H-pyrazol-3-yl)-3-{(1S,4R)-4-[3-(3-morpholin-4-ylmethyl-phenyl)-[1,2,4]triazolo[4,3-a]pyridin-6-yloxy]-1,2,3,4-tetrahydro-naphthalen-1-yl}-urea] | < 10 nM | < 10 nM
Cc1ccc(-n2nc(C(C)(C)C)cc2NC(=O)N[C@H]2CC[C@@H](Oc3ccc4nnc(-c5ccccc5CN5CCOCC5)n4c3)c3ccccc32)cc1 [Example 20, 1-(5-tert-Butyl-2-p-tolyl-2H-pyrazol-3-yl)-3-{(1S,4R)-4-[3-(2-morpholin-4-ylmethyl-phenyl)-[1,2,4]triazolo[4,3-a]pyridin-6-yloxy]-1,2,3,4-tetrahydro-naphthalen-1-yl}-urea] | < 10 nM | < 10 nM
Cc1ccc(-n2nc(C(C)(C)C)cc2NC(=O)N[C@H]2CC[C@@H](Oc3ccc(CN4CCOCC4)nc3)c3ccccc32)cc1 [Example 21, 1-(5-tert-Butyl-2-p-tolyl-2H-pyrazol-3-yl)-3-[(1S,4R)-4-(6-morpholin-4-ylmethyl-pyridin-3-yloxy)-1,2,3,4-tetrahydro-naphthalen-1-yl]-urea] | 10 to 100 nM | 10 to 100 nM
Cc1ccc(-n2nc(C(C)(C)C)cc2NC(=O)N[C@H]2CC[C@@H](Oc3ccc4nnc(CC5CCN(C)CC5)n4c3)c3ccccc32)cc1 [Example 22, 1-(5-tert-Butyl-2-p-tolyl-2H-pyrazol-3-yl)-3-{(1S,4R)-4-[3-(1-methyl-piperidin-4-ylmethyl)-[1,2,4]triazolo[4,3-a]pyridin-6-yloxy]-1,2,3,4-tetrahydro-naphthalen-1-yl}-urea] | < 10 nM | 100 to 1000 nM
Cc1ccc(-n2nc(C(C)(C)C)cc2NC(=O)N[C@H]2CC[C@@H](Oc3ccc4nnc(CC5CCN(CC(F)F)CC5)n4c3)c3ccccc32)cc1 [Example 23, 1-(5-tert-Butyl-2-p-tolyl-2H-pyrazol-3-yl)-3-((1S,4R)-4-{3-[1-(2,2-difluoro-ethyl)-piperidin-4-ylmethyl]-[1,2,4]triazolo[4,3-a]pyridin-6-yloxy}-1,2,3,4-tetrahydro-naphthalen-1-yl)-urea] | < 10 nM | < 10 nM
Cc1ccc(-n2nc(C(C)(C)C)cc2NC(=O)N[C@H]2CC[C@@H](Oc3ccc4nnc(N5CCC(O)CC5)n4c3)c3ccccc32)cc1 [Example 24, 1-(5-tert-Butyl-2-p-tolyl-2H-pyrazol-3-yl)-3-[(1S,4R)-4-[3-(4-hydroxypiperidin-1-yl)-[1,2,4]triazolo[4,3-a]pyridine-6-yloxy]-1,2,3,4-tetrahydro-naphthalen-1-yl]-urea] | < 10 nM | < 10 nM
Cc1ccc(-n2nc(C(C)(C)C)cc2NC(=O)N[C@H]2CC[C@@H](Oc3ccc4nnc(N(C)CCO)n4c3)c3ccccc32)cc1 [Example 25, 1-(5-tert-Butyl-2-p-tolyl-2H-pyrazol-3-yl)-3-[(1S,4R)-4-{3-[(2-hydroxy-ethyl)-methyl-amino]-[1,2,4]triazolo[4,3-a]pyridine-6-yloxy]-1,2,3,4-tetrahydro-naphthalen-1-yl]-urea] | < 10 nM | < 10 nM
Cc1ccc(-n2nc(C(C)(C)C)cc2NC(=O)N[C@H]2CC[C@@H](Oc3ccc4nnc(N5CC[C@H](O)C5)n4c3)c3ccccc32)cc1 [Example 26, 1-(5-tert-Butyl-2-p-tolyl-2H-pyrazol-3-yl)-3-{(1S,4R)-4-[3-((S)-3-hydroxy-pyrrolidin-1-yl)-[1,2,4]triazolo[4,3-a]pyridin-6-yloxy]-1,2,3,4-tetrahydro-naphthalen-1-yl}-urea] | < 10 nM | < 10 nM
Cc1ccc(-n2nc(C(C)(C)C)cc2NC(=O)N[C@H]2CC[C@@H](Oc3ccc4nnc(N5CCC[C@@H]5CO)n4c3)c3ccccc32)cc1 [Example 27, 1-(5-tert-Butyl-2-p-tolyl-2H-pyrazol-3-yl)-3-{(1S,4R)-4-[3-((R)-2-hydroxymethyl-pyrrolidin-1-yl)-[1,2,4]triazolo[4,3-a]pyridin-6-yloxy]-1,2,3,4-tetrahydro-naphthalen-1-yl}-urea] | < 10 nM | < 10 nM
Cc1ccc(-n2nc(C(C)(C)C)cc2NC(=O)N[C@H]2CC[C@@H](Oc3ccc4nnc(N5CCC[C@H]5CO)n4c3)c3ccccc32)cc1 [Example 28, 1-(5-tert-Butyl-2-p-tolyl-2H-pyrazol-3-yl)-3-{(1S,4R)-4-[3-((S)-2-hydroxymethyl-pyrrolidin-1-yl)-[1,2,4]triazolo[4,3-a]pyridin-6-yloxy]-1,2,3,4-tetrahydro-naphthalen-1-yl}-urea] | < 10 nM | < 10 nM
CC(C)(C)c1cc(NC(=O)N[C@H]2CC[C@@H](Oc3ccc4nnc(N5CCCCC5)n4c3)c3ccccc32)n(-c2cccc(CO)c2)n1 [Example 29, 1-[5-tert-Butyl-2-(3-hydroxymethyl-phenyl)-2H-pyrazol-3-yl]-3-[(1S,4R)-4-(3-piperidin-1-yl-[1,2,4]triazolo[4,3-a]pyridin-6-yloxy)-1,2,3,4-tetrahydro-naphthalen-1-yl]-urea] | < 10 nM | < 10 nM
CCOC(=O)c1cccc(-n2nc(C(C)(C)C)cc2NC(=O)N[C@H]2CC[C@@H](Oc3ccc4nnc([C@@H]5CCCN5C)n4c3)c3ccccc32)c1 [Example 30, 3-[3-tert-Butyl-5-(3-{(1S,4R)-4-[3-((S)-1-methyl-pyrrolidin-2-yl)-[1,2,4]triazolo[4,3-a]pyridin-6-yloxy]-1,2,3,4-tetrahydro-naphthalen-1-yl}-ureido)-pyrazol-1-yl]-benzoic acid ethyl ester] | < 10 nM | < 10 nM
CN1CCC[C@H]1c1nnc2ccc(O[C@@H]3CC[C@H](NC(=O)Nc4cc(C(C)(C)C)nn4-c4cccc(CO)c4)c4ccccc43)cn12 [Example 31, 1-[5-tert-Butyl-2-(3-hydroxymethyl-phenyl)-2H-pyrazol-3-yl]-3-{(1S,4R)-4-[3-((S)-1-methyl-pyrrolidin-2-yl)-[1,2,4]triazolo[4,3-a]pyridin-6-yloxy]-1,2,3,4-tetrahydro-naphthalen-1-yl}-urea] | < 10 nM | < 10 nM
CN1CCC[C@H]1c1nnc2ccc(O[C@@H]3CC[C@H](NC(=O)Nc4cc(C(C)(C)C)nn4-c4ccc(CO)cc4)c4ccccc43)cn12 [Example 33, 1-[5-tert-Butyl-2-(4-hydroxymethyl-phenyl)-2H-pyrazol-3-yl]-3-{(1S,4R)-4-[3-((S)-1-methyl-pyrrolidin-2-yl)-[1,2,4]triazolo[4,3-a]pyridin-6-yloxy]-1,2,3,4-tetrahydro-naphthalen-1-yl}urea] | < 10 nM | < 10 nM
